Here are results for one molecule from ChEMBL document CHEMBL4765259, “Synthesis and biological evaluation of novel shikonin-benzo[b]furan derivatives as tubulin polymerization inhibitors targeting the colchicine binding site” (Eur J Med Chem, 2020).

Assay type in all cases: ADME, organism-based
The nature of series [1]: Mean residence time (0 to infinity) in Sprague-Dawley rat at 1.5 mg/kg, iv by UPLC/MS analysis. Conditions: in vivo.
A short description of series [2]: Half life in Sprague-Dawley rat at 1.5 mg/kg, iv by UPLC/MS analysis. Conditions: in vivo.
Series [3] in a line: AUC (0 to infinity) in Sprague-Dawley rat at 1.5 mg/kg, iv by UPLC/MS analysis. Details: time infinity, route intravenous, dose 1.5 mg/kg. The conditions noted are these: in vivo.
A short description of series [4]: Apparent volume of distribution in Sprague-Dawley rat at 1.5 mg/kg, iv by UPLC/MS analysis. The conditions noted are these: in vivo, read-out: Vz.

Structures are written as SMILES.

In general, MRT inf refers to the average time that molecules of a dose stay in the body. Usually half-life stands for how long it takes for the measured level to halve. A high value points to slow decline. Broadly, the AUC(0-inf) is the area under the concentration-time curve extrapolated to infinity. The molecule `COc1ccc2cc(C(=O)O[C@H](CC=C(C)C)C3=CC(=O)c4c(O)ccc(O)c4C3=O)oc2c1` came in with an MRT inf in series [1] of 5.12 h. This molecule also gave a half-life in series [2] of 3.81 h. Further, in series [3], the AUC(0-inf) stood at 2160 ng·h/mL. Also, the Vd in series [4] amounted to 3.35 L/kg.
